Data reported in BindingDB's records for doi:10.1016/s0960-894x(98)00065-1 (University of Arizona, 1999).
pKi: −log10 of the molar value.

Test: Compound was tested for binding affinity towards Opioid receptor delta 1 in guinea pig brain homogenates using [3H][p-Cl-Phe]-DPDPE as radioligand

SMILES | pKi
C[C@H](c1ccccc1)[C@H](NC(=O)CNC(=O)[C@@H](C)NC(=O)[C@@H](N)Cc1ccc(O)cc1)C(=O)NNC(=O)[C@@H](NC(=O)CNC(=O)[C@@H](C)NC(=O)[C@@H](N)Cc1ccc(O)cc1)[C@H](C)c1ccccc1 [2-Amino-N-((S)-1-{[((R)-1-{N'-[(R)-2-(2-{(S)-2-[2-amino-3-(4-hydroxy-phenyl)-propionylamino]-propionylamino}-acetylamino)-3-phenyl-butyryl]-hydrazinocarbonyl}-2-phenyl-propylcarbamoyl)-methyl]-carbamoyl}-ethyl)-3-(4-hydroxy-phenyl)-propionamide] | 6.96
C[C@@H](NC(=O)[C@@H](N)Cc1ccc(O)cc1)C(=O)NCC(=O)N[C@H](C(=O)NNC(=O)[C@@H](NC(=O)CNC(=O)[C@@H](C)NC(=O)[C@@H](N)Cc1ccc(O)cc1)[C@@H](C)c1ccccc1)[C@@H](C)c1ccccc1 [2-Amino-N-((S)-1-{[((S)-1-{N'-[(S)-2-(2-{(S)-2-[2-amino-3-(4-hydroxy-phenyl)-propionylamino]-propionylamino}-acetylamino)-3-phenyl-butyryl]-hydrazinocarbonyl}-2-phenyl-propylcarbamoyl)-methyl]-carbamoyl}-ethyl)-3-(4-hydroxy-phenyl)-propionamide] | 7.96
C[C@@H](NC(=O)[C@@H](N)Cc1ccc(O)cc1)C(=O)NCC(=O)N[C@@H](Cc1c(F)c(F)c(F)c(F)c1F)C(=O)NNC(=O)[C@H](Cc1c(F)c(F)c(F)c(F)c1F)NC(=O)CNC(=O)[C@@H](C)NC(=O)[C@@H](N)Cc1ccc(O)cc1 [Biphalin Analogue] | 8.11
C[C@@H](NC(=O)[C@@H](N)Cc1ccc(O)cc1)C(=O)NCC(=O)N[C@@H](Cc1ccc2ccccc2c1)C(=O)NNC(=O)[C@H](Cc1ccc2ccccc2c1)NC(=O)CNC(=O)[C@@H](C)NC(=O)[C@@H](N)Cc1ccc(O)cc1 [Biphalin Analogue] | 8.13
C[C@@H](NC(=O)[C@@H](N)Cc1ccc(O)cc1)C(=O)NCC(=O)N[C@@H](Cc1cccc2ccccc12)C(=O)NNC(=O)[C@H](Cc1cccc2ccccc12)NC(=O)CNC(=O)[C@@H](C)NC(=O)[C@@H](N)Cc1ccc(O)cc1 [Biphalin Analogue] | 8.19
